# According to US7358044B2, “Prophylactic and therapeutic benefits of a new class of immune stimulating peptides” (priority 2003, dated 2008):
# Marks after values point to notes of the source that are not given here.
# Columns and labels:
# J774A.1 macrophages = test: Macrophage activation, NO production (Greiss reagent); format: cell-based
# Method: J774A.1 macrophages (ATCC TIB67, 5×10^4 viable cells/well) were cultured in Dulbecco's Modified Eagle Medium (DMEM, high glucose)+10% FBS+100 U/ml penicillin+100 μg/ml streptomycin for 24 hr prior to treatment addition. NO production was determined colorimetrically using the Greiss reagent 24 hr after experimental treatments. […] Statistical significance was analyzed by comparison of mean values using the Student's t test (unpaired, two-tailed).
# NK cells = test: NK cell activity of splenocytes from treated mice, chromium-release assay; format: in vivo
# Text: The results are depicted in Table 2.
# clinical mastitis = test: Clinical mastitis, ICPF versus Polyflex; format: in vivo, bovine
# Method: Nineteen animals were showing signs of clinical mastitis, i.e. abnormal milk appearance, painful teat, etc. These animals were randomly assigned to either a test or a control group. The control group animals (n=10) were treated according to the dairy's normal practice for treatment of clinical cases of mastitis, i.e. intramuscular injection of Polyflex brand (Fort Dodge Animal Health) of ampicillin (5 mg/lb×3 days). […] The SCC's for the treatment and control animals were compared 30 days later. The means of the pre-treatment test and control groups were determined to not be statistically different and neither were the standard deviations of the two groups statistically different. […] Two animals in the test group were refractory to treatment.
# [1] = 0.25 ml i.p. (5 mg ICPF or 20 μg Poly I:C), spleens harvested the following day, mean n = 3 with standard error
compound,measurement,setting,value
ICPF-peptide: Purified peptide from ICPF (RSVSLSYRF),induction of NO in combination with LPS,J774A.1 macrophages; ICPF 100 μg/ml or ICPF-peptide 10 μg/ml with LPS 0-10 μg/ml in the absence of IFN-γ,unable to induce NO
same,amount of NO induced by the minimal stimulatory dose of LPS + IFN-γ,"J774A.1 macrophages; ICPF-peptide 0.1-100 μg/ml, LPS 10 ng/ml + IFN-γ 1-5 U/ml",did not modulate the amount of NO
same,dose of LPS required to induce NO,"J774A.1 macrophages; IFN-γ stimulated macrophages, ICPF 100 μg/ml, ICPF-peptide 10 μg/ml",Neither ICPF (100 μg/ml) nor ICPF-peptide (10 μg/ml) altered the dose of LPS required to induce NO
same,dose of IFN-γ required to induce NO,"J774A.1 macrophages; LPS-stimulated macrophages, ICPF 100 μg/ml, ICPF-peptide 10 μg/ml",Neither ICPF (100 μg/ml) nor ICPF-peptide (10 μg/ml) altered the dose of IFN-γ required to induce NO
same,induction of NO,"J774A.1 macrophages; purified peptide 0.1-100 μg/ml, absence or presence of IFN-γ",failed to induce NO
Poly I:C,Percent 51Cr released at E:T ratios 50:1,NK cells; [1],19.1 ± 1.0^b Percent
same,Percent 51Cr released at E:T ratios 100:1,NK cells; [1],31.5 ± 1.1^b Percent
same,Percent 51Cr released at E:T ratios 200:1,NK cells; [1],35.3 ± 1.6^b Percent
same,direct activation of NK cells,"NK cells; naive mice, E:T ratios of 200:1, 100:1, and 50:1",induced activation of NK cells
"CC1(C)S[C@@H]2[C@H](NC(=O)[C@H](N)c3ccccc3)C(=O)N2[C@H]1C(=O)O [Polyflex, ampicillin]",animals that showed improvement,"clinical mastitis; 30 days, Polyflex 5 mg/lb x 3 days i.m. (n=10)",one
same,average somatic cell count for the group increased by,"clinical mastitis; Polyflex 5 mg/lb x 3 days i.m., n=10, test period",7%
